Reference: ChEMBL document CHEMBL1811810, “N-substituted homopiperazine barbiturates as gelatinase inhibitors” (Bioorg Med Chem, 2011)

Test system: Caco-2
Assay: cells
Conditions: Homo sapiens, Caco-2, read-out: INH
Description: Inhibition of cell invasion of human Caco2 cells at 100 nM by cell invasion assay

## CN(C)c1cccc2c(S(=O)(=O)N3CCCN(C4(c5ccc(Oc6ccccc6)cc5)C(=O)NC(=O)NC4=O)CC3)cccc12
  inhibition at 0.1 µM: 20.1%
